Measured values published in patent publication US10508088B2, “Methods using HDAC11 inhibitors” (FORMA Therapeutics, Inc., priority 2016, dated 2019).

Target: Recombinant N-terminal GST tag full-length human HDAC11 (Homo sapiens (Human), UniProt Q96DB2)
Assay: Probe binding HDAC11 assay, time resolved fluorescence (TRF)
Conditions: read-out: HDAC11 IC50 Range
Protocol: The probe binding HDAC11 assay was performed using a time resolved fluorescence (TRF) assay format. Recombinant N-terminal GST tag full-length human HDAC11 was expressed and purified from baculovirus in Sf9 insect cells (SignalChem, # H93-30G-1000). Each assay was performed in 1536 black well microplates (Corning, #3936) in a final volume of 8 μL in assay buffer containing 50 mM HEPES (pH 7.5), 50 mM KCl, 50 mM NaCl, 0.5 mM GSH (L-Glutathione reduced, Sigma #G4251), 0.03% BGG (0.22 μM filtered, Sigma, #G7516-25G), and 0.01% Triton X-100 (Sigma, #T9284-10L). 100 nL of 10-point, 3-fold serial dilution in DMSO was pre-dispensed into respective wells of 1536 assay plates for a final test concentration range of 25 μM to 1.3 nM respectively. The final concentration in the assay of HDAC11 and probe (a fluorescein labeled HDAC 11 inhibitor) was 2.5 nM and 20 nM respectively. 4 μL of 2× probe and 2× anti-GST Terbium (Cisbio, #61GSTXLB) was added to assay plates followed by 4 μL of 2×HDAC11. Plates were incubated for 16 hours at room temperature before time resolved fluorescence was read on the Envision (Excitation at 340 nm, and Emission at 485 nm and 535 nm, Perkin Elmer).
Data from HDAC11 Assays were reported as percent inhibition (inh) compared with control wells based on the following equation: % inh=1−((FLU−AveLow)/(AveHigh−AveLow)) where FLU=measured time resolved fluorescence. AveLow=average time resolved fluorescence of no enzyme control (n=32). AveHigh=average time resolved fluorescence of DMSO control (n=32). IC50 values were determined by curve fitting of the standard 4 parameter logistic fitting algorithm included in the Activity Base software package: IDBS XE Designer Model205. Data is fitted using the Levenburg Marquardt algorithm.

Sequence of Recombinant N-terminal GST tag full-length human HDAC11 (Q96DB2 whole entry): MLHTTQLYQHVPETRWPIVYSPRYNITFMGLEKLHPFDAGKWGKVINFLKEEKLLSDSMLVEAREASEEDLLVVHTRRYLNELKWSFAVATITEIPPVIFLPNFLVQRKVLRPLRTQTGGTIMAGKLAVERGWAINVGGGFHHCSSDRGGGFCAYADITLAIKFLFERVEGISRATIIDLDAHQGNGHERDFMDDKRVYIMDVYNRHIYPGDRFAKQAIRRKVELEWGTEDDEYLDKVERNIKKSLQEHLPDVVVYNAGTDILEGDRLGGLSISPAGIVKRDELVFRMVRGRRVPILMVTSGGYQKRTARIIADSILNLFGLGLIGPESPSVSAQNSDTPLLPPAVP

Row | Structure (SMILES) | IC50 [nM]
1 | COCCn1c(Nc2cccc(C(=O)NO)c2)nc2cc(C(F)(F)F)c(C#N)cc21 [Example 18-1, 3-(6-cyano-1-(2-methoxyethyl)-5-(trifluoromethyl)-1H-benzo[d]imidazol-2-ylamino)-N-hydroxybenzamide] | < 500
2 | CC(C)n1c(Nc2cccc(C(=O)NO)c2)nc2cc(C(F)(F)F)c(C#N)cc21 [Example 14-1, 3-(6-cyano-1-isopropyl-5-(trifluoromethyl)-1H-benzo[d]imidazol-2-ylamino)-N-hydroxybenzamide] | < 500
3 | O=C(NO)c1cccc(Nc2nc3ncc(C(F)(F)F)cc3o2)c1 [Example 32-2, N-hydroxy-3-((6-(trifluoromethyl)oxazolo[4,5-b]pyridin-2-yl)amino)benzamide] | < 500
4 | O=C(NO)c1cccc(Nc2nc3cncnc3[nH]2)c1 [Example 30-1, 3-((9H-purin-8-yl)amino)-N-hydroxybenzamide] | > 1000
5 | Cn1c(Nc2cccc(C(=O)NO)c2)nc2cc(C#N)c(C(F)(F)F)cc21 [Example 10-1, 3-(5-cyano-1-methyl-6-(trifluoromethyl)-1H-benzo[d]imidazol-2-ylamino)-N-hydroxybenzamide] | < 500
6 | O=C(NO)c1cccc(Nc2nc3cc(C(F)(F)F)c(-c4ccc(N5CCOCC5)cc4)cc3[nH]2)c1 [Example 36-19, N-hydroxy-3-((6-(4-morpholinophenyl)-5-(trifluoromethyl)-1H-benzo[d]imidazol-2-yl)amino)benzamide] | < 500
7 | O=C(NO)c1cccc(Nc2nc3cc(C(F)(F)F)c(-c4cnc(N5CCOCC5)nc4)cc3[nH]2)c1 [Example 36-13, N-hydroxy-3-((6-(2-morpholinopyrimidin-5-yl)-5-(trifluoromethyl)-1H-benzo[d]imidazol-2-yl)amino)benzamide] | < 500
8 | COCCn1c(Nc2cc(C(=O)NO)c3ccccc3c2)nc2ccccc21 [Example 23-3, N-hydroxy-3-((1-(2-methoxyethyl)-1H-benzo[d]imidazol-2-yl)amino)-1-naphthamide] | > 1000
9 | COCCn1c(Nc2cccc(C(=O)NO)c2)nc2cc(C(F)(F)F)c(-c3ccccc3)cc21 [Example 20-1, N-hydroxy-3-(1-(2-methoxyethyl)-6-phenyl-5-(trifluoromethyl)-1H-benzo[d]imidazol-2-ylamino)benzamide] | < 500
10 | Cc1cc2[nH]c(Nc3cccc(C(=O)NO)c3)nc2cc1F [Example 33-10, 3-((5-fluoro-6-methyl-1H-benzo[d]imidazol-2-yl)amino)-N-hydroxybenzamide] | < 500
11 | O=C(NO)c1cc(Nc2nc3ccccc3[nH]2)cc2ccccc12 [Example 23-2, 3-((1H-benzo[d]imidazol-2-yl)amino)-N-hydroxy-1-naphthamide] | > 1000
12 | CS(=O)(=O)c1ccc2[nH]c(Nc3cccc(C(=O)NO)c3)nc2c1 [Example 33-23, N-hydroxy-3-((5-(methylsulfonyl)-1H-benzo[d]imidazol-2-yl)amino)benzamide] | > 1000
13 | O=C(NCc1ccccc1)ONC(=O)c1cccc(Nc2nc3cc(-c4ccccc4)c(C(F)(F)F)cc3[nH]2)c1 [Example 37-1, N-((benzylcarbamoyl)oxy)-3-((5-phenyl-6-(trifluoromethyl)-1H-benzo[d]imidazol-2-yl)amino)benzamide] | < 500
14 | O=C(NO)c1cccc(Nc2nc3cc(F)c(Br)cc3[nH]2)c1 [Example 33-16, 3-((6-bromo-5-fluoro-1H-benzo[d]imidazol-2-yl)amino)-N-hydroxybenzamide] | < 500
15 | CN(c1cccc(C(=O)NO)c1)c1nc2cc(-c3cccnc3)c(C(F)(F)F)cc2n1C [Example 34-1, N-hydroxy-3-(methyl(1-methyl-5-(pyridin-3-yl)-6-(trifluoromethyl)-1H-benzo[d]imidazol-2-yl)amino)benzamide] | > 1000
16 | O=C(NO)c1cccc(Nc2nc3cc(C(F)(F)F)c(-c4ccc5c(c4)OCCO5)cc3[nH]2)c1 [Example 36-9, 3-((6-(2,3-dihydrobenzo[b][1,4]dioxin-6-yl)-5-(trifluoromethyl)-1H-benzo[d]imidazol-2-yl)amino)-N-hydroxybenzamide] | < 500
17 | O=C(NO)c1cccc(Cc2nc3cc(Cl)c(Cl)cc3[nH]2)c1 [Example 27-2, 3-((5,6-dichloro-1H-benzo[d]imidazol-2-yl)methyl)-N-hydroxybenzamide] | < 500

Row | Structure (SMILES) | IC50 [nM]
18 | COCCn1c(Nc2cccc(C(=O)NO)c2)nc2cc(-c3ccccc3)c(C(F)(F)F)cc21 [Example 20-2, N-hydroxy-3-((1-(2-methoxyethyl)-5-phenyl-6-(trifluoromethyl)-1H-benzo[d]imidazol-2-yl)amino)benzamide] | < 500
19 | O=C(NO)c1cccc(Nc2nc3cc(Cl)ccc3[nH]2)c1 [Example 33-20, 3-((5-chloro-1H-benzo[d]imidazol-2-yl)amino)-N-hydroxybenzamide] | > 1000
20 | O=C(NO)c1cccc(Nc2nc3cc(Br)c(OC(F)(F)F)cc3[nH]2)c1 [Example 33-7, 3-((5-bromo-6-(trifluoromethoxy)-1H-benzo[d]imidazol-2-yl)amino)-N-hydroxybenzamide] | < 500
21 | CS(=O)(=O)c1cc2nc(Nc3cccc(C(=O)NO)c3)[nH]c2cc1C(F)(F)F [Example 7-1, N-hydroxy-3-(6-(methylsulfonyl)-5-(trifluoromethyl)-1H-benzo[d]imidazol-2-ylamino)benzamide] | < 500
22 | O=C1COc2cc3[nH]c(Nc4cccc(C(=O)NO)c4)nc3cc2N1 [Example 33-18, N-hydroxy-3-((7-oxo-3,6,7,8-tetrahydroimidazo[4′,5′:4,5]benzo[1,2-b][1,4]oxazin-2-yl)amino)benzamide] | > 1000
23 | CCOc1cccc(-c2cc3[nH]c(Nc4cccc(C(=O)NO)c4)nc3cc2C(F)(F)F)c1 [Example 36-4, 3-((6-(3-ethoxyphenyl)-5-(trifluoromethyl)-1H-benzo[d]imidazol-2-yl)amino)-N-hydroxybenzamide] | < 500
24 | O=C(NO)c1cccc(Nc2nc3cc(C(F)(F)F)c(-c4ccoc4)cc3[nH]2)c1 [Example 36-20, 3-((6-(furan-3-yl)-5-(trifluoromethyl)-1H-benzo[d]imidazol-2-yl)amino)-N-hydroxybenzamide] | < 500
25 | O=C(NO)c1cccc(Nc2nc3cc(C(F)(F)F)c(-c4cccnc4)cc3[nH]2)c1 [Example 36-2, N-hydroxy-3-((6-(pyridin-3-yl)-5-(trifluoromethyl)-1H-benzo[d]imidazol-2-yl)amino)benzamide] | < 500
26 | N#Cc1cc2nc(Nc3cccc(C(=O)NO)c3)n(CCCCCN)c2cc1C(F)(F)F [Example 21-1, 3-((1-(5-aminopentyl)-5-cyano-6-(trifluoromethyl)-1H-benzo[d]imidazol-2-yl)amino)-N-hydroxybenzamide] | < 500
27 | COCc1cccc(-c2cc3[nH]c(Nc4cccc(C(=O)NO)c4)nc3cc2C(F)(F)F)c1 [Example 36-16, N-hydroxy-3-((6-(3-(methoxymethyl)phenyl)-5-(trifluoromethyl)-1H-benzo[d]imidazol-2-yl)amino)benzamide] | < 500
28 | O=C(NO)c1cccc(Nc2nc3cc(Cl)c([N+](=O)[O-])cc3[nH]2)c1 [Example 33-15, 3-((5-chloro-6-nitro-1H-benzo[d]imidazol-2-yl)amino)-N-hydroxybenzamide] | < 500
29 | N#Cc1cc2nc(Oc3cccc(C(=O)NO)c3)[nH]c2cc1C(F)(F)F [Example 26-1, 3-((5-cyano-6-(trifluoromethyl)-1H-benzo[d]imidazol-2-yl)oxy)-N-hydroxybenzamide] | > 1000
30 | Cc1cc2[nH]c(Nc3cccc(C(=O)NO)c3)nc2cc1Br [Example 33-12, 3-((5-bromo-6-methyl-1H-benzo[d]imidazol-2-yl)amino)-N-hydroxybenzamide] | < 500
31 | Cn1c(Nc2cccc(C(=O)NO)c2)nc2cc(C(F)(F)F)c(-c3ccccc3)cc21 [Example 35-3, N-hydroxy-3-((1-methyl-6-phenyl-5-(trifluoromethyl)-1H-benzo[d]imidazol-2-yl)amino)benzamide] | < 500
32 | CN(c1cccc(C(=O)NO)c1)c1nc2cc(C(F)(F)F)c(-c3cccnc3)cc2n1C [Example 34-2, N-hydroxy-3-(methyl(1-methyl-6-(pyridin-3-yl)-5-(trifluoromethyl)-1H-benzo[d]imidazol-2-yl)amino)benzamide] | > 1000
33 | O=C(NO)c1cccc(Nc2nc3cc(Cl)c(Cl)cc3[nH]2)c1 [Example 33-14, 3-((5,6-dichloro-1H-benzo[d]imidazol-2-yl)amino)-N-hydroxybenzamide] | < 500
34 | CC(C)n1c(Nc2cccc(C(=O)NO)c2)nc2cc(-c3ccccc3)c(C(F)(F)F)cc21 [Example 16-2, N-hydroxy-3-((1-isopropyl-5-phenyl-6-(trifluoromethyl)-1H-benzo[d]imidazol-2-yl)amino)benzamide] | < 500
